Experimental data as given in patent publication US7960393B2, “Pyrimidine derivatives useful for the treatment of diseases mediated by CRTH2” (Actimis Pharmaceuticals, Inc., priority 2002, dated 2011).

Legend:
human CRTH2 = biological target: T1, human CRTH2 (Homo sapiens, UniProt Q9Y5Y4); test: Measurement of Ca2+ mobilization in the human CRTH2-transfected L1.2 cell line (Assay 1); type: cell-based; conditions: PGD2-induced Ca2+ mobilization in CRTH2-transfected L1.2 cells; compounds as yielded by solid phase synthesis, purity about 40 to 90%; read-out: Activity class
T1 construct: expressed in transfected cells; host or cells: L1.2 cells, pEAK expression vector, puromycin-selected
T1 sequence (Q9Y5Y4 1-395): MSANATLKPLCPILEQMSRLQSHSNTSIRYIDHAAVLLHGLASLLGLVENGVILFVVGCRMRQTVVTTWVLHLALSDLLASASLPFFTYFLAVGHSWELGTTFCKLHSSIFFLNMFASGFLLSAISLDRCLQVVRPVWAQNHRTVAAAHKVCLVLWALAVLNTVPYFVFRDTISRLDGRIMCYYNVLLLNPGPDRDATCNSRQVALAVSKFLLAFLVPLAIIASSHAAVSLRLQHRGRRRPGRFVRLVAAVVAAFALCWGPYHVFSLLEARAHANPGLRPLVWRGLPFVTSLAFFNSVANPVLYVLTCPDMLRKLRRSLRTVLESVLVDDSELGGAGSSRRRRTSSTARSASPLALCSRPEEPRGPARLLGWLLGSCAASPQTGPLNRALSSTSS
Experimental: Human CRTH2 cDNA was amplified from human eosinophil cDNA with gene specific primers containing restriction sites for cloning into pEAK vector (Edge Bio Systems). The human CRTH2 cDNA was cloned into the mammalian expression vector pEAK. This expression plasmid (40 μg) was transfected into L1.2 cells, at a cell density of 1×10^7 cells/500 μl, by using electroporation apparatus (Gene Pulser II, BioRad) at 250V/1,000 μF. One day after the transfection, puromycin (1 μg/ml, Sigma) was added into the cell culture plates. Two weeks after the transfection, grown cells were picked up for further growth.
[Measurement of Ca^2+ Mobilization in the Human CRTH2-Transfected L1.2 Cell Line] (Assay 1)
Ca^2+ loading buffer was prepared by mixing 5 μl of Fluo-3AM (2 mM in DMSO, final 1 μM, Molecular Probes) and 10 μl of pluronic F-127 (Molecular Probes) and diluting the resulting mixture in 10 ml of Ca^2+ assay buffer (20 mM HEPES pH 7.6, 0.1% BSA, 1 mM probenecid, Hanks' solution). The CRTH2 transfected cells which were prepared in Example 1 were washed with PBS, resuspended in Ca^2+ loading buffer at 1×10^7 cells/ml, and incubated for 60 min at room temperature. After incubation, cells were washed and resuspended in Ca^2+ assay buffer, then dispensed into transparent-bottom 96-well plates (#3631, Costar) at 2×10^5 cells/well. Cells were incubated with various concentrations of test compound for 5 minutes at room temperature. The emitted 480 nm fluorescence was measured on FDSS6000, a Ca^2+-measurement apparatus (Hamamatsu Photonics, Hamamatsu, Japan).
Assay results in Assay 1 are shown in Examples and tables of the Examples below. The data corresponds to the compounds as yielded by solid phase synthesis and thus to levels of purity of about 40 to 90%. For practical reasons, the compounds are grouped in four classes of activity as follows: IC50=A(< or =)10 nM<B(< or =)100 nM<C(< or =)500 nM<D

With `CC(c1ccc(NC(=O)c2ccc(Cl)c(Cl)c2)cc1)c1ncc(CC(=O)O)c(N(C)C)n1` (stereo not drawn) [Example 2-21] the melting point was 137 to 140 °C and the IC50 (human CRTH2) was less than 10 nM.

For `COc1cccc(C(=O)Nc2ccc(Cc3nc(Cl)c(CC(=O)O)c(N(C)C)n3)cc2)c1` [Example 1-48], the melting point was greater than 75 °C and the IC50 (human CRTH2) was less than 10 nM.

Work on `CN(C)c1nc(Cc2ccc(NC(=O)c3cccc(Cl)c3)cc2)ncc1CC(=O)O` [Example 2-15] yielded a melting point of 111 to 113 °C and an IC50 (human CRTH2) of 10 to 100 nM.

With `CN(C)c1nc(Cc2cccc(NC(=O)c3ccc4ccccc4c3)c2)nc(Cl)c1CC(=O)O` [Example 1-49] the melting point was 186 °C and the IC50 (human CRTH2) was 10 to 100 nM.

Compound `CN(C)c1nc(Cc2ccc(NC(=O)c3ccc4ccccc4n3)cc2)nc(Cl)c1CC(=O)O` [Example 1-32] has a melting point of 135 to 142 °C and an IC50 (human CRTH2) of less than 10 nM.

With `CN(CC(=O)NC1CCCC1)c1nc(Cc2ccc(NC(=O)Cc3ccc(-c4ccccc4)cc3)cc2)nc(Cl)c1CC(=O)O` [Example 1-24] the melting point was 124 °C and the IC50 (human CRTH2) was 100 to 500 nM.

For `COc1ccc(C(=O)Nc2ccc(Cc3nc(Cl)c(CC(=O)O)c(N(C)C)n3)cc2)cc1` [Example 1-36], the melting point was greater than 130 °C and the IC50 (human CRTH2) was less than 10 nM.

`CN(C)c1nc(Cc2ccc(NC(=O)c3ccccc3-c3ccccc3)cc2)nc(N2CCCC2)c1CC(=O)O` [Example 7-14] showed a melting point of 132 to 134 °C and an IC50 (human CRTH2) greater than 500 nM.

With `CC(C)c1nc(Cc2ccc(NC(=O)c3ccc(C(F)(F)F)cc3)cc2)nc(N(C)C)c1CC(=O)O` [Example 8-11] the melting point was 145 to 148 °C and the IC50 (human CRTH2) was 10 to 100 nM.

In the case of `CN(C)c1nc(Cc2ccc(NC(=O)c3ccc4ccccc4n3)cc2)nc(N2CCCC2)c1CC(=O)O` [Example 7-9], the melting point is reported as 131 to 133 °C and the IC50 (human CRTH2) is reported as 100 to 500 nM.

Work on `CN(C)c1nc(Cc2ccc(NC(=O)/C=C/c3ccccc3)cc2)nc(N2CCCC2)c1CC(=O)O` [Example 7-11] yielded a melting point of 151 to 153 °C and an IC50 (human CRTH2) of 10 to 100 nM.

Work on `COCc1nc(Cc2ccc(NC(=O)c3ccc4ccccc4c3)cc2)nc(N(C)C)c1CC(=O)O` [Example 8-6] yielded a melting point of 128 to 131 °C and an IC50 (human CRTH2) of less than 10 nM.

Work on `CN(C)c1nc(Cc2ccc(NC(=O)c3ccc4ccccc4c3)cc2)ncc1CC(=O)O` [Example 2-1, {4-(Dimethylamino)-2-[4-(2-naphthoylamino)benzyl]pyrimidin-5-yl}acetic acid] yielded a melting point of 210 °C.

`CN(C)c1nc(Cc2ccc(NC(=O)c3ccc(Cl)cc3)cc2)nc(Cl)c1CC(=O)O` [Example 1-35] showed a melting point greater than 166 °C and an IC50 (human CRTH2) of less than 10 nM.

Work on `CN(CC(=O)NC1CCCC1)c1nc(Cc2ccc(NC(=O)C3CC3)cc2)nc(Cl)c1CC(=O)O` [Example 1-6] yielded a melting point greater than 146 °C and an IC50 (human CRTH2) greater than 500 nM.

Work on `N=C(N)Nc1ccc(C(=O)Nc2ccc(Cc3nc(Cl)c(CC(=O)O)c(N4CCCC4)n3)cc2)cc1` [Example 1-52] yielded a melting point of 176 °C and an IC50 (human CRTH2) greater than 500 nM.

`CN(CC(=O)NC1CCCC1)c1nc(Cc2ccc(NC(=O)c3ccc(Cl)cc3)cc2)nc(Cl)c1CC(=O)O` [Example 1-18] gave a melting point of 143 °C and an IC50 (human CRTH2) of less than 10 nM.

`CN(C)c1nc(Cc2ccc(NC(=O)OCc3ccc(C(F)(F)F)cc3)cc2)ncc1CC(=O)O` [Example 9-8] gave a melting point of 91 to 93 °C and an IC50 (human CRTH2) of less than 10 nM.

With `CN(CC(=O)NC1CCCC1)c1nc(Cc2ccc(NC(=O)c3cccc4ccccc34)cc2)nc(Cl)c1CC(=O)O` [Example 1-22] the melting point was 136 °C and the IC50 (human CRTH2) was 10 to 100 nM.

Work on `CN(C)c1nc(Cc2ccc(NC(=O)c3ccc4ccccc4n3)cc2)nc(N2CCOCC2)c1CC(=O)O` [Example 7-17] yielded a melting point of 205 to 207 °C and an IC50 (human CRTH2) greater than 500 nM.

For `COCC(=O)Nc1ccc(Cc2ncc(CC(=O)O)c(N3CCCC3)n2)cc1` [Example 2-34], the melting point was 102 to 105 °C and the IC50 (human CRTH2) was greater than 500 nM.

For `CN(C)c1nc(Cc2ccc(NC(=O)OCc3ccccc3)cc2)nc(Cl)c1CC(=O)O` [Example 9-3], the melting point was 88 to 91 °C and the IC50 (human CRTH2) was less than 10 nM.

In the case of `Cc1ccc(C(=O)Nc2ccc(Cc3nc(Cl)c(CC(=O)O)c(N(C)CC(=O)NC4CCCC4)n3)cc2)cc1` [Example 1-21], the melting point is reported as 125 °C and the IC50 (human CRTH2) is reported as less than 10 nM.

For `CN(CCO)c1nc(Cc2ccc(NC(=O)c3ccc4ccccc4c3)cc2)nc(Cl)c1CC(=O)O` [Example 1-66], the melting point was 140 °C and the IC50 (human CRTH2) was less than 10 nM.

In the case of `COCc1nc(Cc2ccc(NC(=O)c3ccc(C(F)(F)F)cc3)cc2)nc(N(C)C)c1CC(=O)O` [Example 8-7], the melting point is reported as 126 to 128 °C and the IC50 (human CRTH2) is reported as less than 10 nM.

Work on `O=C(O)Cc1c(Cl)nc(Cc2ccc(NC(=O)c3ccc(Cl)c(Cl)c3)cc2)nc1N1CCCC1` [Example 1-61] yielded a melting point of 129 °C and an IC50 (human CRTH2) of less than 10 nM.

Compound `COc1ccc(C(=O)Nc2ccc(Cc3nc(Cl)c(CC(=O)O)c(N(C)C)n3)cc2)cc1OC` [Example 1-38] has a melting point greater than 95 °C and an IC50 (human CRTH2) of 10 to 100 nM.

In the case of `CN(C)c1nc(Cc2ccc(NC(=O)c3ccc(Cl)c(Cl)c3)cc2)nc(N2CCOCC2)c1CC(=O)O` [Example 7-19], the melting point is reported as 196 to 198 °C and the IC50 (human CRTH2) is reported as 10 to 100 nM.

Compound `CN(C)c1nc(Cc2ccc(NC(=O)c3ccc(Cl)cc3)cc2)nc(N2CCCC2)c1CC(=O)O` [Example 7-29] has a melting point of 140 to 142 °C and an IC50 (human CRTH2) of 10 to 100 nM.

`CN(C)c1nc(Cc2ccc(NC(=O)c3cccc(Cl)c3)cc2)nc(Cl)c1CC(=O)O` [Example 1-47] gave a melting point greater than 108 °C and an IC50 (human CRTH2) of less than 10 nM.

Compound `CN(CC(=O)NC1CCCC1)c1nc(Cc2ccc(NC(=O)Cc3cccc(Oc4ccccc4)c3)cc2)nc(Cl)c1CC(=O)O` [Example 1-30] has a melting point greater than 118 °C and an IC50 (human CRTH2) of less than 10 nM.

`CC(c1ccc(NC(=O)c2ccc(C(F)(F)F)cc2)cc1)c1ncc(CC(=O)O)c(N(C)C)n1` (stereo not drawn) [Example 2-22] showed a melting point of 151 to 154 °C and an IC50 (human CRTH2) of less than 10 nM.

Work on `CC(c1ccc(NC(=O)/C=C/c2ccccc2)cc1)c1ncc(CC(=O)O)c(N(C)C)n1` (stereo not drawn) [Example 2-23] yielded a melting point of 150 to 153 °C and an IC50 (human CRTH2) of less than 10 nM.

Work on `CN(C)c1nc(Cc2ccc(NC(=O)c3ccc(Br)cc3)cc2)nc(Cl)c1CC(=O)O` [Example 1-42] yielded a melting point of 100 °C and an IC50 (human CRTH2) of less than 10 nM.

Compound `CN(C)c1nc(Cc2ccc(NC(=O)COc3ccccc3)cc2)nc(N2CCOCC2)c1CC(=O)O` [Example 7-26] has a melting point of 172 to 175 °C and an IC50 (human CRTH2) greater than 500 nM.

For `CN(C)c1nc(Cc2ccc(NC(=O)c3ccc4ccccc4c3)cc2)nc(Cl)c1CC(N)=O` [Example 11, N-(4-{[5-(2-Amino-2-oxoethyl)-4-chloro-6-(dimethylamino)pyrimidin-2-yl]methyl}phenyl)-2-naphthamide], the melting point was 189 to 190 °C.

Compound `CN(C)c1nc(Cc2ccc(NC(=O)c3ccc4ccccc4c3)cc2)nc(N2CCCC2)c1CC(=O)O` [Example 7-4] has an IC50 (human CRTH2) of 10 to 100 nM.

Compound `CN(C)c1nc(Cc2ccc(NC(=O)c3ccc(Br)cc3)cc2)ncc1CC(=O)O` [Example 2-16] has an IC50 (human CRTH2) of less than 10 nM.

For `CN(CC(=O)NC1CCCC1)c1nc(Cc2ccc(NC(=O)c3ccccc3)cc2)ncc1CC(=O)O` [Example 2-4], the IC50 (human CRTH2) was 10 to 100 nM.

Compound `CN(CC(=O)NC1CCCC1)c1nc(Cc2ccc(NC/C=C/c3ccccc3)cc2)nc(Cl)c1CC(=O)O` [Example 5-4] has an IC50 (human CRTH2) of 100 to 500 nM.

In the case of `CN(C)c1nc(Cc2ccc(N(C)C(=O)c3ccc(Cl)cc3)cc2)nc(Cl)c1CC(=O)O` [Example 6-1, [4-Chloro-2-{4-[(4-chlorobenzoyl)(methyl)amino]benzyl}-6-(dimethylamino)pyrimidin-5-yl]acetic acid], the IC50 (human CRTH2) is reported as 100 to 500 nM.
